Reference: publication PMC2680961, “Homologous desensitization of signalling by the alpha (α) isoform of the human thromboxane A2 receptor: A specific role for nitric oxide signalling” (Biochimica et Biophysica Acta, 2007)

Legend:
[1] = target: T1, TP^Δ328 (Homo sapiens, UniProt P21731); experiment: Intracellular calcium mobilization, HEK.TP^Δ328 cells; assay type: cell-based; details: for Δ[Ca2+]i, U46619-induced: HEK.TP^Δ328
T1 construct: expressed in transfected cells
T1 sequence (P21731 1-328): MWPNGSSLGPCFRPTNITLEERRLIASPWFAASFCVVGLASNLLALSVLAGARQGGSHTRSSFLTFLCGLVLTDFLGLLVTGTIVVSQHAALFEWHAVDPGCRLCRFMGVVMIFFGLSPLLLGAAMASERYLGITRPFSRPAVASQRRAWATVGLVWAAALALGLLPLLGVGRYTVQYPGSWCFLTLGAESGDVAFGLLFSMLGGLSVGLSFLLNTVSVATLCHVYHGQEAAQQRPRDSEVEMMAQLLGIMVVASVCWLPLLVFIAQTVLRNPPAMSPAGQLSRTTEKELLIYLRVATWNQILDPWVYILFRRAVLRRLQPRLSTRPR
Method: Measurement of intracellular calcium mobilization ([Ca^2+]i) in FURA2/AM preloaded HEK 293 cell lines (2 × 10^6 cells/dish), each transiently co-transfected with pADVA (10 μg), and pCMV:Gαq (25 μg), was carried out as previously described. To investigate the effect of GRK2/βARK1 on TP-mediated [Ca^2+]i mobilization, HEK.TPα or HEK.TPβ cells (2 × 10^6 cells/dish) were co-transfected with pADVA (10 μg), pCMV:Gαq (25 μg) along with pRK5:βARK1^495–689 (25 μg), encoding a dominant negative form of GRK2/βARK1[39]. Approximately 48 h post-transfection, cells were harvested by scraping, washed twice in ice-cold PBS and resuspended in HBSSHB (modified Ca^2+/Mg^2+-free Hank's buffered salt solution, containing […], pH 7.67, 0.1% bovine serum albumin (BSA)) buffer at 10^7 cells/ml and incubated in the dark with 5 μM FURA2/AM for 45 min at 37 °C. Cells were collected by centrifugation (900×g, 5 min), washed once in an equal volume of HBSSHB, and were finally resuspended in HBSSHB buffer at 10^7 cells/ml and kept at room temperature in the dark for 40 min. For each measurement of [Ca^2+]i mobilization, aliquots of cells were diluted to 0.825 × 10^6 cells/ml in HBSSHB, 1 mM CaCl2 and FURA2 fluorescence was recorded (2 ml aliquots of cells) at 37^ °C with gentle stirring with a Perkin Elmer-Cetus LS50-B spectrofluorometer at excitation wavelengths of 340 nm and 380 nm and emission wavelength of 510 nm, respectively.
Cells were stimulated with the TP agonist U46619 (1 μM) and changes in [Ca^2+]i mobilization were monitored as a function of time. To assess agonist-mediated homologous desensitization, cells (0.825 × 10^6 cells/ml; 2 ml per assay) were stimulated with 1 μM U46619 (Primary stimulation) or, as a control, with the vehicle for 4 min; thereafter, cells were collected by centrifugation (900×g, 5 min); were washed twice in 2 ml HBSSHB, 1 mM CaCl2; and finally resuspended in 2 ml HBSSHB,1 mM CaCl2 and were left to recover over various time intervals (ranging from 0 to 60 min); thereafter, cells re-stimulated with 1 μM U46619 (Secondary stimulation) and changes in [Ca^2+]i mobilization were monitored as a function of time. To assess the role of protein kinase (PK) A, PKC or PKG on U46619-mediated desensitization of TPα signalling, cells were pre-incubated with the PKA inhibitor H-89 (10 μM), the PKC inhibitor GF 109203X (50 nM) or the PKG inhibitor KT 5823 (50 nM), for 15 min and respective kinase inhibitors were maintained throughout the primary/secondary U46619-stimulations and during the washes.
The vehicle had no effect on U46619-mediated [Ca^2+]i mobilization. Calibration of the signal was performed in each sample by adding 0.2% Triton X-100 to obtain the maximal fluorescence ratio (Rmax) and then 1 mM EGTA to obtain the minimal fluorescence ratio (Rmin). The ratio of the fluorescence at 340 nm to that at 380 nm is a measure of [Ca^2+]i, which assumes a Kd of 225 nM Ca^2+ for FURA2/AM. The results presented in the figures are representative data from at least three or four independent experiments and are plotted as changes in Ca^2+i mobilized (Δ[Ca^2+]i (nM)) as a function of time (s) upon ligand stimulation. Changes in [Ca^2+]i mobilization were determined by measuring peak rises in [Ca^2+]i mobilized (Δ[Ca^2+]i) and were calculated as mean changes in Δ[Ca^2+]i ± S.E.M. (nM).

[2] = target: T2, TPα^T337A (Homo sapiens, UniProt P21731, T337A); experiment: [3H]SQ29,548 radioligand binding, Scatchard analysis, HEK.TPα^T337A
T2 construct: expressed in transfected cells
T2 sequence (P21731 1-343 T337A): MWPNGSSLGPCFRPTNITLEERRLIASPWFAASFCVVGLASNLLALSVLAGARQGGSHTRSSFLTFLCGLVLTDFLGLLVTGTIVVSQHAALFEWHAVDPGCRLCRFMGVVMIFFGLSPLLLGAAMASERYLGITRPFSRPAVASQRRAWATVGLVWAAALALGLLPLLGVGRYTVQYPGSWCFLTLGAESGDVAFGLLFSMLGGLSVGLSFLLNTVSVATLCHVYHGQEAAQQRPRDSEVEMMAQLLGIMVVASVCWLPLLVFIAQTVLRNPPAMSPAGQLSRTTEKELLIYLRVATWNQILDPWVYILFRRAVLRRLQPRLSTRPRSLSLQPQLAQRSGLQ
Method: Cells were harvested by centrifugation at 500×g at 4 °C for 5 min and washed three times with ice-cold Ca^2+/Mg^2+-free phosphate-buffered saline (PBS). TP radioligand binding assays were carried out at 30 °C for 30 min in 100 μl reactions in the presence of 0–40 nM [^3H] […] Protein determinations were carried out using the Bradford assay.
Radioligand binding and Scatchard analysis data were analysed using GraphPad Prisim V4.0 programme (GraphPad Software Inc., San Diego CA, USA). Statistical analyses were carried out using the unpaired Student's t test using the Statworks Analysis Package. p-values ≤ 0.01 indicated statistically significant differences.

With `CCCCC[C@H](O)/C=C/[C@@H]1[C@@H](C/C=C\CCCC(=O)O)[C@H]2CO[C@@H]1C2` [U46619] the “Δ[Ca2+]i, U46619-induced” value ([1]; primary stimulation, 1 μM U46619 4 min) was 180 ± 5.6 nM, the “Δ[Ca2+]i, U46619-induced” value ([1]; secondary 1 μM U46619 at 15 min) was 158 ± 3.8 nM and the “Δ[Ca2+]i, U46619-induced” value ([1]; secondary 1 μM U46619 at 60 min) was 178 ± 6.7 nM. For the same compound, the “secondary U46619 [Ca2+]i response relative to primary response” value ([1]; TP^Δ328, restimulation at 15 min) was ~80%.

For `O=C(O)CCC/C=C\C[C@@H]1[C@H](CNNC(=O)Nc2ccccc2)[C@H]2CC[C@@H]1O2` [SQ29,548], the “Bmax (pmol/mg protein ± S.E.M.)” value [2] was 4.23 ± 0.04 pmol/mg protein.
